Reference: PubChem BioAssay (NCI)
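Cells were grown in 96-well plates and exposed to each compound for 48 hours at five concentrations; endpoints were interpolated linearly between bracketing concentrations, or set to the highest concentration if not reached. The concentration for full growth arrest is given as TGI.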

test system: RXF 393 renal; assay: NCI anticancer screen, dose series, 48 h

In the case of `C=c1c(OC)c(OC)c(O)c2c1=c1cc([N+](=O)[O-])cc(OC)c1=N2`, the TGI is reported as over 100 µM.

test system: K-562 leukemia; assay: NCI anticancer screen, dose series, 48 h

Point of comparison: `C=C1C(=O)O[C@@]23C1CC[C@@H](C)C2CC[C@@]1(C)OC31` (some centres undefined), TGI 66.1 µM. Against it:
- O=c1[nH]nc(-c2ccccc2)c2[nH]c(-c3ccccc3)cc12 — higher, > 100 µM
- CC1S/C(=N/c2nnc(-c3ccccc3)o2)NC1=O (centres undefined) — higher, > 100 µM
- CC1(C)CNC(=O)C2(C=NC(C)(C)CNC(=O)C3(C=N1)CCCO3)CCCO2 (centres undefined) — not separable, > 10 µM
- CC(=S)N=Cc1c(O)cc(C)oc1=O — higher, > 100 µM
- COc1ccc(NC2=CC(=O)C(=O)c3ccccc32)nn1 — 50-fold lower, 1.31 µM
- CC1(C(=O)O)CCCC1C(=O)O (centres undefined) — higher, > 100 µM
- C=c1c(OC)c(OC)c(O)c2c1=c1cc([N+](=O)[O-])cc(OC)c1=N2 — higher, > 100 µM

test system: MOLT-4 leukemia; assay: NCI anticancer screen, dose series, 48 h

Point of comparison: `COc1ccc(NC2=CC(=O)C(=O)c3ccccc32)nn1`, TGI 1.76 µM. Against it:
- C=C1C(=O)O[C@@]23C1CC[C@@H](C)C2CC[C@@]1(C)OC31 (some centres undefined) — 18-fold higher, 31.8 µM
- O=c1[nH]nc(-c2ccccc2)c2[nH]c(-c3ccccc3)cc12 — higher, > 100 µM
- CC1S/C(=N/c2nnc(-c3ccccc3)o2)NC1=O (centres undefined) — higher, > 100 µM
- CC1(C)CNC(=O)C2(C=NC(C)(C)CNC(=O)C3(C=N1)CCCO3)CCCO2 (centres undefined) — higher, > 10 µM
- CC(=S)N=Cc1c(O)cc(C)oc1=O — higher, > 100 µM
- CC1(C(=O)O)CCCC1C(=O)O (centres undefined) — higher, > 100 µM
- C=c1c(OC)c(OC)c(O)c2c1=c1cc([N+](=O)[O-])cc(OC)c1=N2 — higher, > 100 µM

test system: SF-295 CNS; assay: NCI anticancer screen, dose series, 48 h

Point of comparison: `COc1ccc(NC2=CC(=O)C(=O)c3ccccc32)nn1`, TGI 2.15 µM. Against it:
- C=C1C(=O)O[C@@]23C1CC[C@@H](C)C2CC[C@@]1(C)OC31 (some centres undefined) — 23-fold higher, 48.9 µM
- O=c1[nH]nc(-c2ccccc2)c2[nH]c(-c3ccccc3)cc12 — higher, > 100 µM
- CC1S/C(=N/c2nnc(-c3ccccc3)o2)NC1=O (centres undefined) — higher, > 100 µM
- CC1(C)CNC(=O)C2(C=NC(C)(C)CNC(=O)C3(C=N1)CCCO3)CCCO2 (centres undefined) — higher, > 10 µM
- CC(=S)N=Cc1c(O)cc(C)oc1=O — higher, > 100 µM
- CC1(C(=O)O)CCCC1C(=O)O (centres undefined) — higher, > 100 µM
- C=c1c(OC)c(OC)c(O)c2c1=c1cc([N+](=O)[O-])cc(OC)c1=N2 — higher, > 100 µM

test system: OVCAR-3 ovarian; assay: NCI anticancer screen, dose series, 48 h

Point of comparison: `COc1ccc(NC2=CC(=O)C(=O)c3ccccc32)nn1`, TGI 5.94 µM. Against it:
- C=C1C(=O)O[C@@]23C1CC[C@@H](C)C2CC[C@@]1(C)OC31 (some centres undefined) — 2.3-fold higher, 13.4 µM
- O=c1[nH]nc(-c2ccccc2)c2[nH]c(-c3ccccc3)cc12 — higher, > 100 µM
- CC1S/C(=N/c2nnc(-c3ccccc3)o2)NC1=O (centres undefined) — 12-fold higher, 69.5 µM
- CC1(C)CNC(=O)C2(C=NC(C)(C)CNC(=O)C3(C=N1)CCCO3)CCCO2 (centres undefined) — higher, > 10 µM
- CC(=S)N=Cc1c(O)cc(C)oc1=O — higher, > 100 µM
- CC1(C(=O)O)CCCC1C(=O)O (centres undefined) — higher, > 100 µM
- C=c1c(OC)c(OC)c(O)c2c1=c1cc([N+](=O)[O-])cc(OC)c1=N2 — higher, > 100 µM

test system: PC-3 prostate; assay: NCI anticancer screen, dose series, 48 h

Point of comparison: `C=C1C(=O)O[C@@]23C1CC[C@@H](C)C2CC[C@@]1(C)OC31` (some centres undefined), TGI 18.7 µM. Against it:
- CC1S/C(=N/c2nnc(-c3ccccc3)o2)NC1=O (centres undefined) — higher, > 100 µM
- CC1(C)CNC(=O)C2(C=NC(C)(C)CNC(=O)C3(C=N1)CCCO3)CCCO2 (centres undefined) — not separable, > 10 µM
- CC(=S)N=Cc1c(O)cc(C)oc1=O — higher, > 100 µM
- COc1ccc(NC2=CC(=O)C(=O)c3ccccc32)nn1 — 2.1-fold higher, 38.9 µM
- CC1(C(=O)O)CCCC1C(=O)O (centres undefined) — higher, > 100 µM
- C=c1c(OC)c(OC)c(O)c2c1=c1cc([N+](=O)[O-])cc(OC)c1=N2 — higher, > 100 µM

test system: M14 melanoma; assay: NCI anticancer screen, dose series, 48 h

Point of comparison: `COc1ccc(NC2=CC(=O)C(=O)c3ccccc32)nn1`, TGI 0.668 µM. Against it:
- C=C1C(=O)O[C@@]23C1CC[C@@H](C)C2CC[C@@]1(C)OC31 (some centres undefined) — 19-fold higher, 12.9 µM
- O=c1[nH]nc(-c2ccccc2)c2[nH]c(-c3ccccc3)cc12 — higher, > 100 µM
- CC1S/C(=N/c2nnc(-c3ccccc3)o2)NC1=O (centres undefined) — 85-fold higher, 56.5 µM
- CC1(C)CNC(=O)C2(C=NC(C)(C)CNC(=O)C3(C=N1)CCCO3)CCCO2 (centres undefined) — higher, > 10 µM
- CC(=S)N=Cc1c(O)cc(C)oc1=O — higher, > 100 µM
- CC1(C(=O)O)CCCC1C(=O)O (centres undefined) — higher, > 100 µM
- C=c1c(OC)c(OC)c(O)c2c1=c1cc([N+](=O)[O-])cc(OC)c1=N2 — higher, > 100 µM

test system: MCF7 breast; assay: NCI anticancer screen, dose series, 48 h

Point of comparison: `COc1ccc(NC2=CC(=O)C(=O)c3ccccc32)nn1`, TGI 2.14 µM. Against it:
- C=C1C(=O)O[C@@]23C1CC[C@@H](C)C2CC[C@@]1(C)OC31 (some centres undefined) — 12-fold higher, 24.9 µM
- CC1S/C(=N/c2nnc(-c3ccccc3)o2)NC1=O (centres undefined) — higher, > 100 µM
- CC1(C)CNC(=O)C2(C=NC(C)(C)CNC(=O)C3(C=N1)CCCO3)CCCO2 (centres undefined) — higher, > 10 µM
- CC(=S)N=Cc1c(O)cc(C)oc1=O — higher, > 100 µM
- C=c1c(OC)c(OC)c(O)c2c1=c1cc([N+](=O)[O-])cc(OC)c1=N2 — higher, > 100 µM
